Tested on: HEK 293T cells encoding an NF-κB-driven luciferase reporter gene
Experiment: NF-κB-driven luciferase reporter assay in HEK 293T cells
Assay type: cell-based, human
Conditions: FIG. 12; HEK 293T; 10, 30 or 50 μg/mL, digitonin 20 min, luciferase after 6 hours
Experimental: FIGS. 10A-B. Effect of chemically synthesised analogues on human embryonic kidney cells (HEK 293T) encoding an NF-κB-driven luciferase reporter gene. NF-κB luciferase activity was measured in wild type (WT) or TIFA knockout (TIFA KO) cells treated with compounds in the presence of digitonin for 20 min, washed, and then cultured in normal medium without the synthetic compounds for 6 hrs after treatment, before luciferase activity was measured. (A) Cells were treated with 10 μg/mL of the indicated compound. Data are means±standard error mean of technical triplicates. (B) Cells were treated with two different molar concentrations of compound (30 μM or 150 μM). Two batches of DD-β-HBP and DD-β-HMP synthesized independently of one another were tested (batch #1 and batch #2) to assess consistency of the chemical synthesis. Data are means±standard error mean of technical triplicates and are representative of three independent experiments. JS-12: D-glycero-D-manno-heptose; JS-2: D-glycero-D-manno-heptose 7-phosphate; JS-7:D-glycero-β-D-manno-heptose-phosphate; JS-8: D-glycero-α-D-manno-heptose-phosphate; JS-9: β-D-mannose phosphate; JS-6:D-glycero-β-D-manno heptose 1,7-biphosphate; JS-5: D-glycero-α-D-manno heptose 1,7-biphosphate.
FIG. 12. Effects of compounds/products according to the invention on HEK 293T cells encoding an NF-κB-driven luciferase reporter gene. HEK 293T cells were transfected with a plasmid encoding an NF-κB-driven luciferase reporter. After 24 hours, cells were stimulated for 20 minutes in permeabilization buffer (5 μg/mL digitonin) in the presence of water or 10 μg/mL, 30 μg/mL, or 50 μg/mL of indicated synthetic compounds according to the invention. Treatment was removed; cells were washed and incubated for 6 hours incomplete medium. A luciferase assay was then performed. JS-12a control: D-glycero-D-manno heptose. The results are the means±standard error of the mean of three technical replicates. JS-10: 7-O-(Aminoethyl)-D-glycero-β-D-manno-heptopyranose phosphate; JS-11: 7-O-(Aminoethyl)-D-glycero-D-manno-heptopyranose; JS-12: D-glycero-D-manno-heptose; Js-13: pH-Rhodo-7-O-(aminoethyl)-D-glycero-β-D-manno-heptopyranose phosphate.
FIG. 14. Effects of compounds/products according to the invention on HEK 293T cells encoding an NF-κB-driven luciferase reporter gene. HEK 293T cells were transfected with a plasmid encoding an NF-κB-driven luciferase reporter. After 24 hours, cells were stimulated for 20 minutes in permeabilization buffer (5 μg/mL digitonin) in the presence of water, or either 30 μM or 150 μM of indicated synthetic compounds according to the invention. Treatment was removed; cells were washed and incubated for 6 hours in complete medium. A luciferase assay was then performed. […]

`NCCOC[C@@H](O)C1O[C@@H](OP(=O)([O-])[O-])C(O)[C@@H](O)[C@@H]1O.[Na+].[Na+]` (stereo partly drawn) [JS-10a, 7-O-(Aminoethyl)-D-glycero-β-D-manno-heptopyranose phosphate] was tested, and the “inflammatory response (NF-κB luciferase)” value was “modest inflammatory response”.

Source: patent US11795190B2, “D-glycero-B-D-heptose 1-phosphate (HMP) conjugates and use for targeted immune modulation” (NATIONAL RESEARCH COUNCIL OF CANADA, priority 2017, dated 2023)
